Experimental findings from patent US12600728B2, “Interleukin-17 inhibitors” (priority 2020, dated 2026) are described below.

The target of assay [1] is recombinant human IL-17AA (Homo sapiens, UniProt Q16552). Kind of assay: IL-6 release from NHDF cells, IL-17AA plus TNF-α stimulation. Particulars: 24 hours, IL-6 by ELISA. It counts as cell-based. In short, it runs like this: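 ELISA measured IL-6 in supernatants after 24 h at 37° C of NHDF cells with a compound/cytokine cocktail, pre-mixed 30 min at room temperature. Duplicates; 0.1% DMSO or 20% plasma final. IC50 from IL-6 remaining after subtracting the TNF-α-alone signal.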
A general note: ELISA stands for enzyme-linked immunosorbent assay.

Assay [2] concerns the target biotinylated human IL-17A / AF647-labeled human IL-17RA (Homo sapiens, UniProt Q16552). Kind of assay: Human IL-17A×IL-17RA TR-FRET assay. It counts as binding. In short, it runs like this: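 Compounds tested in duplicate at each concentration; neutral controls contain all components with DMSO in place of compound.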
[3] abbreviates: NHDF cells, IL-17AA 30 pM + TNF-α 6 pM, read-out: IL17AA + TNF IC50 IL-6.
Setting [4] is: TR-FRET, 5 nM IL-17A, 30 nM IL-17RA, read-out: IL17AA FRET/ IL17Rawt IC50.
Where [5] appears, read: NHDF cells, IL-17AA 30 pM plus TNF-α 6 pM, read-out: IL17AA + TNF IC50 IL-6.
[6] abbreviates: TR-FRET, biotinylated human IL-17A 5 nM, AF647-labeled human IL-17RA 30 nM, read-out: IL17AA FRET/ IL17Rawt IC50.

Molecules are shown by their SMILES. Like-named read-outs stand apart in the source and are kept apart here.

Chain of biotinylated human IL-17A / AF647-labeled human IL-17RA (Q16552 24-155): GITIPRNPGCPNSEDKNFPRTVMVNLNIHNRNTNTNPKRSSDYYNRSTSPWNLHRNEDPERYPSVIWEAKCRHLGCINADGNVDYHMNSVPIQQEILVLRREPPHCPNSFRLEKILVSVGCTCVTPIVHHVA
Chain of recombinant human IL-17AA (Q16552 24-155): as above

`Cc1c(-c2ccc(NC(=O)C(NC(=O)c3ccc4n3CCN(C)C4)C3CC4CC4C3)cc2F)c(Cl)cc[n+]1[O-]` (stereo not drawn) [Example 203, 3-(4-(2-(bicyclo[3.1.0]hexan-3-yl)-2-(2-methyl-1,2,3,4-tetrahydropyrrolo[1,2-a]pyrazine-6-carboxamido)acetamido)-2-fluorophenyl)-4-chloro-2-methylpyridine 1-oxide]: the IC50 in assay [1] (setting [3]) is 39 nM; in assay [2] (setting [4]), 257 nM.
Take `Cc1c(-c2ccc(NC(=O)[C@@H](NC(=O)c3ccnn3C)C3CCCCC3)c(F)c2F)c(Cl)cc[n+]1[O-]` [Example 62, 4-chloro-3-(4-((S)-2-cyclohexyl-2-(1-methyl-1H-pyrazole-5-carboxamido)acetamido)-2,3-difluorophenyl)-2-methylpyridine 1-oxide]: the IC50 in assay [1] (setting [5]) turned out to be 7 nM; in assay [2] (setting [6]) it was 15 nM.
Consider `Cc1cc[n+]([O-])c(C)c1-c1ccc(NC(=O)C(NC(=O)c2ccnn2C)C2CCC(C(F)(F)F)CC2)cc1` [Example 24, 2,4-dimethyl-3-(4-((S)-2-(1-methyl-1H-pyrazole-5-carboxamido)-2-((1r,4S)-4-(trifluoromethyl)cyclohexyl)acetamido)phenyl)pyridine 1-oxide], for which the IC50 stood at 48 nM in assay [1] (IL17AA + TNF IC50 IL-6, NHDF cells, IL-17AA 30 pM plus TNF-α 6 pM) and 114 nM in assay [2] (IL17AA FRET/ IL17Rawt IC50, TR-FRET, biotinylated human IL-17A 5 nM, AF647-labeled human IL-17RA 30 nM).
Turning to `Cc1cc[n+]([O-])c(C)c1-c1ccc(NC(=O)[C@@H](NC(=O)c2ccnn2C)C2CCCCCC2)nc1` [Example 148, (S)-6′-(2-cycloheptyl-2-(1-methyl-1H-pyrazole-5-carboxamido)acetamido)-2,4-dimethyl-[3,3′-bipyridine] 1-oxide], the IC50 was determined as 131 nM in assay [1] (setting [3]) and 125 nM in assay [2] (setting [4]).
For `Cc1c(-c2ccc(NC(=O)C(NC(=O)c3ccnn3C)C3CCCC(F)(F)C3)cc2)c(Cl)cc[n+]1[O-]` (stereo not drawn) [Example 160, 4-chloro-3-(4-(2-(3,3-difluorocyclohexyl)-2-(1-methyl-1H-pyrazole-5-carboxamido)acetamido)phenyl)-2-methylpyridine 1-oxide], the IC50 in assay [1] (IL17AA + TNF IC50 IL-6, NHDF cells, IL-17AA 30 pM + TNF-α 6 pM) worked out at 52.3 nM; in assay [2] (IL17AA FRET/ IL17Rawt IC50, TR-FRET, 5 nM IL-17A, 30 nM IL-17RA), 89.5 nM.
Regarding `Cc1cc[n+]([O-])c(C)c1-c1ccc(NC(=O)C(NC(=O)c2ccnn2C)C2CCCCC(F)(F)C2)cc1` (stereo not drawn) [Example 156, 3-(4-(2-(3,3-difluorocycloheptyl)-2-(1-methyl-1H-pyrazole-5-carboxamido)acetamido)phenyl)-2,4-dimethylpyridine 1-oxide], the IC50 in assay [1] (setting [3]) was 51.5 nM; in assay [2] (setting [4]), 110 nM.
For the compound `Cc1cc[n+]([O-])c(C)c1-c1ccc(NC(=O)[C@@H](NC(=O)c2ccc3n2CCN(C)C3)C2CC=C(F)CC2)cc1` (stereo partly drawn) [Example 128, 3-(4-((2S)-2-(4-fluorocyclohex-3-en-1-yl)-2-(2-methyl-1,2,3,4-tetrahydropyrrolo[1,2-a]pyrazine-6-carboxamido)acetamido)phenyl)-2,4-dimethylpyridine 1-oxide], the IC50 in assay [1] (setting [5]) came out at 54 nM; in assay [2] (setting [6]), 299 nM.
Consider `Cc1c(-c2ccc(NC(=O)[C@@H](NC(=O)c3ccnn3C)[C@H]3CCCC(F)(F)C3)cc2)c(C(F)(F)F)cc[n+]1[O-]` [Example 183, 3-(4-((S)-2-((S)-3,3-difluorocyclohexyl)-2-(1-methyl-1H-pyrazole-5-carboxamido)acetamido)phenyl)-2-methyl-4-(trifluoromethyl)pyridine 1-oxide], for which the IC50 in assay [1] (setting [3]) worked out at 42 nM; in assay [2] (setting [4]) it was 54.1 nM.
With `COCc1nocc1C(=O)N[C@H](C(=O)Nc1ccc(-c2c(Cl)cc[n+]([O-])c2C)c(F)c1)C1CCCCC1` [Example 90, 4-chloro-3-(4-((S)-2-cyclohexyl-2-(3-(methoxymethyl)isoxazole-4-carboxamido)acetamido)-2-fluorophenyl)-2-methylpyridine 1-oxide], the IC50 in assay [1] (setting [5]) was 5 nM; in assay [2] (setting [6]), 65 nM.
